Assay results from patent US20230058189A1, “QUINOLIN-4-ONE AND 4(1H)-CINNOLINONE COMPOUNDS AND METHODS OF USING SAME” (Frequency Therapeutics, Inc., priority 2019, published 2023).

Legend:
GSK3α = GSK3α (Homo sapiens, UniProt P49840); experiment: GSK3α in vitro enzymatic assay (Kinase-Glo Max luminescence); assay type: biochemical; settings: recombinant human GSK3, 10 μM ATP; approximate values; read-out: Potency GSK3alpha
Method: (§1) Enzymatic activities of compounds of the present disclosure can be tested using recombinant human GSK3 in an in vitro enzymatic assay to determine the ability of the compounds of the present disclosure to inhibit GSK3α and GSK3β.
(§2) The assay was performed using Kinase-Glo® Max luminescence kinase assay kit (Promega). The assay measures kinase activity by quantitating the amount of ATP remaining in solution following a kinase reaction. The luminescent signal from the assay is correlated with the amount of ATP present and is inversely correlated with the amount of kinase activity.
(§3) To perform the assay, compounds were diluted in 10% DMSO and 5 μl of the dilution was added to a 50 μl reaction so that the final concentration of DMSO was 1% in all of reactions. The enzymatic reactions were conducted at 30° C. for 40 minutes. The 50 μl reaction mixture contained 40 mM Tris, pH 7.4, 10 mM MgCl2, 0.1 mg/ml BSA, 2 mM DTT, 0.1 mg/ml GSK tide substrate, 10 uM ATP and GSK3. After the enzymatic reaction, 50 μl of Kinase-Glo Max Luminescence kinase assay solution (Promega) was added to each reaction and plates were incubated for 15 minutes at room temperature. Luminescence signal was measured using a BioTek Synergy 2 microplate reader.
(§4) Kinase activity assays were performed in duplicate at each concentration. The luminescence data were analyzed using the computer software, GraphPad Prism. The difference between luminescence intensities in the absence of Kinase (Lut) and in the presence of Kinase (Luc) was defined as 100% activity (Lut-Luc). Using luminescence signal (Lu) in the presence of the compound, percent activity was calculated as: % activity={(Lut-Lu)/(Lut-Luc)}×100%, where Lu=the luminescence intensity in the presence of the compound (all percent activities below zero were shown zero in the table).
(§5) The values of percent activity versus a series of compound concentrations were then plotted using non-linear regression analysis of Sigmoidal dose-response curve generated with the equation Y=B+(T−B)/1+10((LogEC50−X)×Hill Slope), where Y=percent activity, B=minimum percent activity, T=maximum percent activity, X=logarithm of compound and Hill Slope=slope factor or Hill coefficient. The ICs, value was determined by the concentration causing a half-maximal percent activity.

GSK3β = GSK3β (Homo sapiens, UniProt P49841); experiment: GSK3β in vitro enzymatic assay (Kinase-Glo Max luminescence); assay type: biochemical; settings: recombinant human GSK3, 10 μM ATP; approximate values; read-out: Potency GSK3beta
GSK3β, sequence (P49841 whole entry): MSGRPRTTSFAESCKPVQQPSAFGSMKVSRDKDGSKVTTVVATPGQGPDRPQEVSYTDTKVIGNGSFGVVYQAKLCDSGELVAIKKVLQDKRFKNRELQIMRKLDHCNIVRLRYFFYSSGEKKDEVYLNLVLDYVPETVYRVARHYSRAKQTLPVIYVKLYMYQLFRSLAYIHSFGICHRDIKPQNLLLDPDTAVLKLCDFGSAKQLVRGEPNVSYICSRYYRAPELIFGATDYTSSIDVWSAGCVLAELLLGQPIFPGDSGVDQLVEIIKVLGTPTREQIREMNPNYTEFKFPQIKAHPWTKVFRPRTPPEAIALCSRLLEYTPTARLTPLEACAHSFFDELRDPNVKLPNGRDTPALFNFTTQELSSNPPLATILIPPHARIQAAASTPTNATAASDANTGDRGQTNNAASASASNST
Method: as §1, §2, §3, §4, §5

LSD-1 = LSD-1 (Homo sapiens, UniProt O60341); experiment: LSD-1 A-screen (AlphaScreen) demethylase enzymatic assay; assay type: biochemical; settings: approximate values; for inhibition at 50 µM: read-out: Potency LSD-1 % Inhibition at 50 μM
Method: (§6) Enzymatic activities of compounds of the present disclosure can be tested with recombinant human LSD using an in vitro enzymatic assay to determine the ability of the compounds of the present disclosure to inhibit LSD-1 and LSD2. Examples of the assay are provided below.
(§7) All of the enzymatic reactions were conducted in duplicate at room temperature for 60 minutes in a 10 μL mixture containing assay buffer, histone H3 peptide substrate, demthylase enzyme, and the test compound. These 10 μL reactions were carried out in wells of a 384-well Optiplate (PerkinElmer). The dilution of the compounds was first performed in 100% DMSO with the highest concentration at 5 mM Each intermediate compound dilution (in 100% DMSO) was then directly diluted 30× fold into assay buffer for 3.3× concentration (DMSO). […] From this intermediate step, 3 μL of compound was added to 4 μL of demethylase enzyme dilution was incubated for 30 minutes at room temperature. After this incubation, 3 μL of peptide substrate was added. The final DMSO concentration was 1%. After enzymatic reactions, 5 μL of anti-Mouse or anti-Rabbit Acceptor beads (PerkinElmer, diluted 1:500 with 1× detection buffer) and […] (BPS, diluted 1:800 with 1× detection buffer) were added to the reaction mix. After brief shaking, the plate was incubated for 30 minutes. Finally, 10 μL of AlphaScreen™ Streptavidin-conjugated donor beads (Perkin, diluted 1:125 with 1× detection buffer) were added. After 30 minutes, the samples were measured in an AlphaScreen microplate reader (EnSpire Alpha 2390 Multilabel Reader, Perkin Elmer).
(§8) Enzyme activity assays were performed in duplicates at each concentration. The A-screen intensity data were analyzed and compared. In the absence of the compound, the intensity in each data set was defined as 100% (Ce) activity. In the absence of enzyme, the intensity in each data set was defined as 0% (C0) activity. The percent activity in the presence of each compound was calculated according to the following equation: % activity=(C−C0)/(Ce−C0), where C=the intensity in the presence of the compound.
as §5, with “value” for “values”, “was” for “were”, “IC50” for “ICs,”

LSD2 = target: T1, LSD2 (Homo sapiens, UniProt Q8NB78); experiment: LSD2 A-screen (AlphaScreen) demethylase enzymatic assay; assay type: biochemical; settings: 50 μM compound, approximate values; for inhibition at 50 µM: read-out: Potency LSD-2 % Inhibition at 50 μM
T1 sequence (Q8NB78 1-822): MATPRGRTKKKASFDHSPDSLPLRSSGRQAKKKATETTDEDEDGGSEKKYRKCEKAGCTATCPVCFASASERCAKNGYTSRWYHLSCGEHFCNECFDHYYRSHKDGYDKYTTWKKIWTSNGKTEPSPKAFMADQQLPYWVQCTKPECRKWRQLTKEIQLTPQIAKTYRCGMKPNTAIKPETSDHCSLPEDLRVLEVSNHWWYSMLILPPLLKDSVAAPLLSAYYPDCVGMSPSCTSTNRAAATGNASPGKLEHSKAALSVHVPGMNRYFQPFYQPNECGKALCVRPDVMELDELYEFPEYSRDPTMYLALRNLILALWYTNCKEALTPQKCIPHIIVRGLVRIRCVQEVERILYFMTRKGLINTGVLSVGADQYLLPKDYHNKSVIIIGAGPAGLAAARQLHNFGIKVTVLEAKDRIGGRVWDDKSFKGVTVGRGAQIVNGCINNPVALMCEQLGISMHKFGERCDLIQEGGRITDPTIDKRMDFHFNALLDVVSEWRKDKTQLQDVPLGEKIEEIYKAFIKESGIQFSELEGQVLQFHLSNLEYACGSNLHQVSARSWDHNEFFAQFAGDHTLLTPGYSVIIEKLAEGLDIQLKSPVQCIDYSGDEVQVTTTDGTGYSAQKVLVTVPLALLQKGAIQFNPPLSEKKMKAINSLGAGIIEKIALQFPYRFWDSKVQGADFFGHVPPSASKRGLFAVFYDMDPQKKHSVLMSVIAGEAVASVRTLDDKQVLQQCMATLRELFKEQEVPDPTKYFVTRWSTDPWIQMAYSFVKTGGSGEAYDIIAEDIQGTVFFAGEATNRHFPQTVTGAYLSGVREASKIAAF
Method: as §6, §7, §8
as §5, with “value” for “values”, “was” for “were”, “IC50” for “ICs,”

[1] = tested on: Lgr5+ cells (cochlear stem cells); experiment: Lgr5+ assay: expansion of Lgr5-positive cochlear cells in 3D culture; assay type: cell-based, mouse
Excerpt: “Stem Cell Proliferation Assay” as used herein is an assay to determine the capacity for agent(s) to induce the creation of stem cells from a starting cell population. In an exemplary Stem Cell Proliferation Assay, the number of cells for an initial cell population is harvested from a Lgr5-GFP mouse such as a B6.129P2-Lgr5tm1(cre/ERT2)Cle/J mouse (also known as Lgr5-EGFP-IRES-creERT2 or Lgr5-GFP mouse, Jackson Lab Stock No: 008875) between the age of 3 to 7 days, by isolating the organ of Corti sensory epithelium and dissociating the epithelium into single cells. Approximately 5000 cells are entrapped in 40 μl of culture substrate (for example, Matrigel (Corning, Growth Factor Reduced)) and placed at the center of wells in a 24-well plate with 500 μl of an appropriate culture media, growth factors and agent being tested. Appropriate culture media and growth factors include Advanced DMEM/F12 with media supplements (1×N2, 1×B27, 2 mM Glutamax, 10 mM HEPES, 1 mM N-acetylcysteine, and 100 U/ml penicillin/100 μg/ml streptomycin) and growth factors (50 ng/ml EGF, 50 ng/ml bFGF, and 50 ng/ml IGF-1) as well as the agent(s) being assessed are added into each well. Cells are cultured for 10 days in a standard cell culture incubator at 37° C. and 5% CO2, with media change every 2 days. The number of Lgr5^+ cells is quantified by counting the number of cells identified as Lgr5+ in an in vitro Lgr5 activity assay (i.e., an assay mearing in vitro Lgr5 activity). The fraction of cells that are Lgr5^+ is quantified by dividing the number of cells identified as Lgr5^+ in a cell population by the total number of cells present in the cell population. The average Lgr5^+ activity of a population is quantified by measuring the average mRNA expression level of Lgr5 of the population normalized using suitable and unregulated references or housekeeping genes (e.g., Hprt). The number of hair cells in a population may be measured by staining with hair cell marker (e.g., MyosinVIIa), or using an endogenous reporter of hair cell genes (e.g., Pou4f3-GFP, Atoh1-nGFP) and analyzing using flow cytometry. The fraction of cells that are hair cells is quantified by dividing the number of cells identified as hair cells in a cell population by the total number of cells present in the cell population. Lgr5 activity can be measured by qPCR.
The compounds of the present disclosure were used in Lgr5-EGFP-IRES-Cre-ER mice (Barker et al., 2007) to analyze the effects of small molecules on cochlear stem cell expansion.
Isolation of stem cells from the inner ear: All animal studies were conducted under an approved institutional protocol according to National Institutes of Health guidelines. For experiments with neonatal mice (postnatal days 1-3), the cochleae were dissected in Hank's Balanced Salt Solution (HBSS) and the organs of Corti were separated from the stria vascularis and the modiolus. The organs of Corti were then treated with Cell Recovery Solution (Corning) for 1 hour to separate cochlear epithelium from the underlying mesenchyme. Epithelia were then collected and treated with TrypLE (Life Technologies) for 15-20 minutes at 37° C. Single cells obtained by mechanical trituration were filtered (40 μm) and suspended in Matrigel® (Corning) for 3D culture.
Cells were cultured in a 1:1 mixture of DMEM and F12, supplemented with Glutamax (GIBCO), N2, B27 (Invitrogen), EGF (50 ng/ml; Chemicon), bFGF (50 ng/ml; Chemicon), IGF1 (50 ng/ml; Chemicon) and the composition provided herein. Medium was changed every other day.
Lgr5-positive cells were quantified after 10 days (D10) in culture in multiple conditions. Cell colonies were dissociated into single cells using TrypLE (Gibco). The cells were then stained with propidium iodide (P1) and were analyzed using a flow cytometer for Lgr5-GFP expression. The number of GFP-positive cells and the percentage of GFP-positive cells were quantified. […]

[2] = in a background of growth factors, compared to CHIR-99021 and its combinations (figures)

GSK3α, sequence (P49840 whole entry): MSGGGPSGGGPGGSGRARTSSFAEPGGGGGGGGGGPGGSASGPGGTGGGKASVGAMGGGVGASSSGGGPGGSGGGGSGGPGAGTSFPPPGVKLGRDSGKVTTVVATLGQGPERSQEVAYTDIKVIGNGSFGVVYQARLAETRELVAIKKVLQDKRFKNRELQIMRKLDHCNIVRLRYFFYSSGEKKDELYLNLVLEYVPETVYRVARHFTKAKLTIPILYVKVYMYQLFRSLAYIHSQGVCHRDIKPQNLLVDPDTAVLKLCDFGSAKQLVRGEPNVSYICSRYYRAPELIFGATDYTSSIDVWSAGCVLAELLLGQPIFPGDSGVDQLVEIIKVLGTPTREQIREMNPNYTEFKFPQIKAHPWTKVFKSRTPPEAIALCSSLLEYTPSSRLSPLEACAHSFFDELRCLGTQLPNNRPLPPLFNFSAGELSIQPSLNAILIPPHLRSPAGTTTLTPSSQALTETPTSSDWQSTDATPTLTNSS

| SMILES | IC50 (GSK3α) | IC50 (GSK3β) | inhibition at 50 µM (LSD-1; 50 μM compound) | inhibition at 50 µM (LSD2) | IC50 (LSD-1; read-out: Potency LSD-1 IC50) | Potency LSD-1 % Inhibition at 50 μM (LSD-1; 50 μM compound, 50 µM) | Potency LSD-2 % Inhibition at 50 μM (LSD2; 50 µM) | Potency (Lgr5+ activity) ([1]; effective concentration for Lgr5+ expansion, 10 days culture with EGF, bFGF, IGF1, approximate values) | Lgr5 GFP+ progenitor cell proliferation (Lgr5 positive cell count) [1, 2] | enrichment of Lgr5 GFP+ cochlear progenitor cells (percent of Lgr5 positive cells) [1, 2] |
| --- | --- | --- | --- | --- | --- | --- | --- | --- | --- | --- |
| Nc1c(F)c(NCCN[C@@H]2C[C@H]2c2ccccc2)cc2c1c(=O)c(C(=O)O)cn2CCO (relative stereo) [Compound I-90] | 0.99 µM | 1.6 µM |  | 8% | 8.5 µM |  |  |  |  |  |
| CCn1cc(C(=O)O)c(=O)c2c(N)cc(NCCc3ccccc3)cc21 [Compound I-56] | > 10 µM | > 10 µM | 56% | 28% |  |  |  |  |  |  |
| CCn1cc(C(=O)O)c(=O)c2c(F)cc(NCc3ccccc3)cc21 [Compound I-55] | > 10 µM | > 10 µM |  |  |  |  |  |  |  |  |
| CCn1cc(C(=O)O)c(=O)c2c(N)c(F)c(N[C@@H]3C[C@H]3c3ccccc3)cc21 (relative stereo) [Compound I-20] |  |  |  |  |  |  |  | 1.1 µM | generate Lgr5 GFP+ progenitor cell proliferation | generates enrichment of Lgr5 GFP+ cochlear progenitor cells |

Further lines, with some results ahead:

| IC50 (GSK3α) | IC50 (GSK3β) | inhibition at 50 µM (LSD-1; 50 μM compound) | inhibition at 50 µM (LSD2) | IC50 (LSD-1; read-out: Potency LSD-1 IC50) | Potency LSD-1 % Inhibition at 50 μM (LSD-1; 50 μM compound, 50 µM) | Potency LSD-2 % Inhibition at 50 μM (LSD2; 50 µM) | SMILES | Potency (Lgr5+ activity) ([1]; effective concentration for Lgr5+ expansion, 10 days culture with EGF, bFGF, IGF1, approximate values) | Lgr5 GFP+ progenitor cell proliferation (Lgr5 positive cell count) [1, 2] | enrichment of Lgr5 GFP+ cochlear progenitor cells (percent of Lgr5 positive cells) [1, 2] |
| --- | --- | --- | --- | --- | --- | --- | --- | --- | --- | --- |
| > 10 µM | > 10 µM | 72% | 2% |  |  |  | CCn1cc(C(=O)O)c(=O)c2c(N)cc(NC3CCCCC3)c(F)c21 [Compound I-64] |  |  |  |
| > 10 µM | > 10 µM |  |  |  | 26% @ 50 μM | 6% | CCn1cc(C(=O)O)c(=O)c2c(N)c(F)c(N[C@@H]3C[C@H]3c3ccccc3)cc21 (single isomer, unassigned) [Compound I-63] |  |  |  |
| > 10 µM | > 10 µM | 0% | 3% |  |  |  | CCn1cc(C(=O)O)c(=O)c2c(N)c(F)c(OCCc3ccccc3)cc21 [Compound I-52] |  |  |  |
| > 10 µM | > 10 µM | 77% | 7% |  |  |  | CCn1cc(C(=O)O)c(=O)c2c(N)cc(NC3CCCCC3)cc21 [Compound I-58] |  |  |  |
